Reference: patent publication US6858591B2, “Antibiotic AA 896 analogs” (Wyeth Holdings Corporation, priority 2001, dated 2005)
Values after ≈ are worked out from the molar mass of the structure shown.

How the values were obtained:
Assay in all cases: In vitro MIC, broth dilution
Format in all cases: cell-based
[1] = tested on: S. marcescens GC 4077; details: Serratia marcescens, GC4077; S. marcescens GC 4077; read-out: MIC
[2] = tested on: P. aeruginosa GC 2214; details: Pseudomonas aeruginosa, GC2214; P. aeruginosa GC 2214; read-out: MIC
[3] = tested on: E. cloacae GC 3783; details: Enterobacter cloacae, GC3783; E. cloacae GC 3783; read-out: MIC
[4] = tested on: E. coli GC 4559; details: Escherichia coli, GC4559; E. coli GC 4559; read-out: MIC
[5] = tested on: C. albicans GC 3066; details: Candida albicans, GC3066; C. albicans GC 3066; read-out: MIC
[6] = tested on: P. aeruginosa GC 4532; details: Pseudomonas aeruginosa, GC4532; P. aeruginosa GC 4532; read-out: MIC
[7] = tested on: CNS GC 4547; details: CNS GC 4547; read-out: MIC
Outline: (§1)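 Susceptibility testing used the NCCLS broth dilution method. Antibiotic spanned 64-0.06 μg/ml against an inoculum of 5×10^5 CFU/ml in Mueller-Hinton II; after 18 hours at 35° C the lowest concentration without growth gave the MIC.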

[8] = tested on: CNS GC 4537; details: CNS GC 4537; read-out: MIC
Outline: as §1

[9] = tested on: E. faecalis GC 842; details: Enterococcus faecalis, GC842; E. faecalis GC 842; read-out: MIC
Outline: as §1

[10] = tested on: E. faecalis GC 2242; details: Enterococcus faecalis, GC2242; E. faecalis GC 2242; read-out: MIC
Outline: as §1

[11] = tested on: CNS GC 4538; details: CNS GC 4538; read-out: MIC
Outline: as §1

[12] = tested on: S. aureus GC 2216; details: Staphylococcus aureus, GC2216; S. aureus GC 2216; read-out: MIC
Outline: as §1

[13] = tested on: E. faecalis GC 4555; details: Enterococcus faecalis, GC4555; E. faecalis GC 4555; read-out: MIC
Outline: as §1

[14] = tested on: S. aureus GC 1131; details: Staphylococcus aureus, GC1131; S. aureus GC 1131; read-out: MIC
Outline: as §1

[15] = tested on: S. aureus GC 4536; details: Staphylococcus aureus, GC4536; S. aureus GC 4536; read-out: MIC
Outline: as §1

[16] = tested on: M. morganii GC 4531; details: Morganella morganii, GC4531; M. morganii GC 4531; read-out: MIC
[17] = tested on: E. coli GC 2203; details: Escherichia coli, GC2203; E. coli GC 2203; read-out: MIC
[18] = tested on: K. pneumoniae GC 4534; details: Klebsiella pneumoniae, GC4534; K. pneumoniae GC 4534; read-out: MIC
[19] = tested on: E. coli GC 4560; details: Escherichia coli, GC4560; E. coli GC 4560; read-out: MIC
[20] = tested on: E. coli GC 3226; details: Escherichia coli, GC3226; E. coli GC 3226; read-out: MIC

| Structure (SMILES) | MIC [1] [µg/mL] | MIC [2] [µg/mL] | MIC [3] [µg/mL] | MIC [4] [µg/mL] | MIC [5] [µg/mL] | MIC [6] [µg/mL] | MIC [7] [µg/mL] | MIC [8] [µg/mL] | MIC [9] [µg/mL] | MIC [10] [µg/mL] | MIC [11] [µg/mL] | MIC [12] [µg/mL] | MIC [13] [µg/mL] | MIC [14] [µg/mL] | MIC [15] [µg/mL] | MIC [16] [µg/mL] | MIC [17] [µg/mL] | MIC [18] [µg/mL] | MIC [19] [µg/mL] | MIC [20] [µg/mL] |
| --- | --- | --- | --- | --- | --- | --- | --- | --- | --- | --- | --- | --- | --- | --- | --- | --- | --- | --- | --- | --- |
| COc1ccc(Cn2c(=O)ccn([C@@H]3OC([C@H](O)[C@H](NCCCNC(=O)[C@@H](CC(C)C)NC(=O)OCc4ccccc4)C(=O)OC(C)(C)C)[C@@H](O[Si](C)(C)C(C)(C)C)[C@H]3O[Si](C)(C)C(C)(C)C)c2=O)cc1 (stereo partly drawn) [Example 56, tert-Butyl (5R,12S)-12-[(R)-[(3R,4R,5R)-3,4-bis{[tert-butyl(dimethyl)silyl]oxy}-5-(3-(4-methoxybenzyl)-2,4-dioxo-3,4-dihydro-1(2H)-pyrimidinyl)tetrahydro-2-furanyl](hydroxy)methyl]-5-isobutyl-3,6-dioxo-1-phenyl-2-oxa-4,7,11-triazatridecan-13-oate] | > 128 | 128 (≈ 125 µM) | > 128 | > 128 | > 128 | 128 (≈ 125 µM) | > 128 | > 128 | > 128 | 128 (≈ 125 µM) | > 128 | > 128 | > 128 | > 128 | > 128 | 128 (≈ 125 µM) | > 128 | > 128 | > 128 | > 128 |
| COc1ccc(Cn2c(=O)ccn([C@@H]3OC([C@H](O)[C@H](NCCCNC(=O)[C@H](N)CC(C)C)C(=O)OC(C)(C)C)[C@@H](O[Si](C)(C)C(C)(C)C)[C@H]3O[Si](C)(C)C(C)(C)C)c2=O)cc1 (stereo partly shown) [Example 57] | 128 (≈ 143 µM) | 128 (≈ 143 µM) | 128 (≈ 143 µM) | > 128 | 128 (≈ 143 µM) | 128 (≈ 143 µM) | 64 (≈ 71.7 µM) | 4 (≈ 4.48 µM) | 8 (≈ 8.97 µM) | 4 (≈ 4.48 µM) | 4 (≈ 4.48 µM) | 32 (≈ 35.9 µM) | 4 (≈ 4.48 µM) | 64 (≈ 71.7 µM) | 8 (≈ 8.97 µM) | 128 (≈ 143 µM) | > 128 | > 128 | 128 (≈ 143 µM) | > 128 |

Second part, the molecule after the results:

| MIC [1] [µg/mL] | MIC [2] [µg/mL] | MIC [3] [µg/mL] | MIC [4] [µg/mL] | MIC [5] [µg/mL] | MIC [6] [µg/mL] | MIC [7] [µg/mL] | MIC [8] [µg/mL] | MIC [9] [µg/mL] | MIC [10] [µg/mL] | MIC [11] [µg/mL] | MIC [12] [µg/mL] | MIC [13] [µg/mL] | MIC [14] [µg/mL] | MIC [15] [µg/mL] | MIC [16] [µg/mL] | MIC [17] [µg/mL] | MIC [18] [µg/mL] | MIC [19] [µg/mL] | MIC [20] [µg/mL] | Structure (SMILES) |
| --- | --- | --- | --- | --- | --- | --- | --- | --- | --- | --- | --- | --- | --- | --- | --- | --- | --- | --- | --- | --- |
| > 128 | 128 (≈ 211 µM) | > 128 | > 128 | 128 (≈ 211 µM) | 128 (≈ 211 µM) | > 128 | > 128 | 128 (≈ 211 µM) | 128 (≈ 211 µM) | > 128 | > 128 | 128 (≈ 211 µM) | > 128 | > 128 | > 128 | > 128 | > 128 | 128 (≈ 211 µM) | > 128 | COc1ccc(Cn2c(=O)ccn([C@@H]3OC([C@H](O)[C@H](NCCCNC(=O)[C@@H](N)CC(C)C)C(=O)O)[C@@H](O)[C@H]3O)c2=O)cc1 (stereo partly drawn) [Example 53, (2S,3R)-2-[(3-{[(2S)-2-Amino-4-methylpentanoyl]amino}propyl)amino]-3-[(3S,4R,5R)-3,4-dihydroxy-5-(3-(4-methoxybenzyl)-2,4-dioxo-3,4-dihydro-1(2H)-pyrimidinyl)tetrahydro-2-furanyl]-3-hydroxypropanoic acid] |
| > 128 | 128 (≈ 193 µM) | > 128 | > 128 | > 128 | > 128 | > 128 | > 128 | 128 (≈ 193 µM) | 128 (≈ 193 µM) | > 128 | > 128 | > 128 | > 128 | > 128 | 128 (≈ 193 µM) | > 128 | > 128 | 128 (≈ 193 µM) | > 128 | COc1ccc(Cn2c(=O)ccn([C@@H]3OC([C@H](O)[C@H](NCCCNC(=O)[C@@H](N)CC(C)C)C(=O)OC(C)(C)C)[C@@H](O)[C@H]3O)c2=O)cc1 (stereo partly drawn) [Example 54, tert-Butyl (2S,3R)-2-[(3-{[(2S)-2-amino-4-methylpentanoyl]amino}propyl)amino]-3-[(3S,4R,5R)-3,4-dihydroxy-5-(3-(4-methoxybenzyl)-2,4-dioxo-3,4-dihydro-1(2H)-pyrimidinyl)tetrahydro-2-furanyl]-3-hydroxypropanoate] |
| 128 (≈ 206 µM) | 128 (≈ 206 µM) | 128 (≈ 206 µM) | > 128 | 128 (≈ 206 µM) | 128 (≈ 206 µM) | > 128 | > 128 | 128 (≈ 206 µM) | 128 (≈ 206 µM) | > 128 | > 128 | 128 (≈ 206 µM) | > 128 | > 128 | 128 (≈ 206 µM) | 128 (≈ 206 µM) | 128 (≈ 206 µM) | 128 (≈ 206 µM) | 128 (≈ 206 µM) | CC(C)C[C@H](NC(=O)OCc1ccccc1)C(=O)NCCCN[C@H](C(=O)O)[C@@H](O)C1O[C@@H](n2ccc(=O)[nH]c2=O)[C@H](O)[C@@H]1O (stereo partly drawn) [Example 55, (5S,12S)-12-[(R)-[(3S,4R,5R)-5-(2,4-Dioxo-3,4-dihydro-1(2H)-pyrimidinyl)-3,4-dihydroxy-tetrahydro-2-furanyl](hydroxy)methyl]-5-isobutyl-3,6-dioxo-1-phenyl-2-oxa-4,7,11-triazatridecan-13-oic acid] |
